# Patent US20060063707A1, “Compositions for enhancing memory and methods therefor” (Lifelike Biomatic, Inc., priority 2004, published 2006)
# “Also recorded” adds a separate entry of the source.
# What was measured:
# [1] = tested on: adult mice hippocampal slices; test: LTP induction in hippocampal slices (EPSP slopes in CA1 after theta-burst stimulation); type: cell-based
# Protocol: Adult mice hippocampal slices were prepared according to standard procedures as described in Dunwiddie and Lynch (J. Physiol. 276:353-367. 1978). Briefly, mice were decapitated following anesthesia, the brains rapidly removed and the hippocampus dissected. Transverse hippocampal slices (400 μm thick) were cut with a McIllwain tissue slicer (Stoelting Co., Wood Dale, Ill.). Slices were pre-incubated for at least 60 min in an artificial cerebrospinal fluid (aCSF) containing (in mM) NaCl (124), KCl (3), KH2PO4 (1.25), MgSO4 (2.5), CaCl2 (3.4), NaHCO3 (26), glucose (10); and L-ascorbate (2) before being placed in a recording chamber. Slices were continuously perfused with aCSF containing no added drug, 20 μM CX546, 2 μM D, L-serine, or a combination of 20 μM CX546 and 2 μM D, L-serine. A stimulating electrode was placed in the stratum radiatum at the junction of CA3 and CA1 and a recording electrode was placed in the stratum radiatum of CA1. Baseline recording with a stimulation frequency of 0.033 Hz was done for at least 10 min. After obtaining a stable baseline for 10 min, LTP was elicited in CA1 stratum radiatum by stimulation of the Schaffer collateral pathways by using high frequency stimulation of 5 bursts of 3 pulses at 100 Hz, with the bursts delivered at the theta frequency, i.e., 5 Hz. Low frequency stimulation was resumed and responses recorded for at least 30 min.
# Slopes of the extracellular postsynaptic potentials (EPSPs) were calculated and expressed as percent of the average values recorded during the 10 min baseline period. Results were averaged and expressed as means±s.e.m.
# In particular, slices were prepared as cited above and EPSPs were evoked in CA1 stratum radiatum by stimulation of the Schaffer collateral pathways once every 30 seconds. At t=0, high frequency stimulation (5 bursts of 3 pulses at 100 Hz with bursts delivered at 5 Hz) was delivered, and low frequency stimulation resumed. Slopes of EPSPs were calculated and expressed as percent over the average values during the 10 minute baseline. […] The data of FIG. 3 therefore represent the means±s.e.m., of 8 slices for control conditions (●), and 6 slices for the combination of 250 μM piracetam and 2 μM D, L-serine (▪). Results were statistically significant with ANOVA with repeated measures.
# Slices were incubated in control medium. LB-302 (100 μM) was added to the medium at t=20 min and LTP was induced as in Example 1 by using high frequency stimulation of 5 bursts of 3 pulses at 100 Hz, with the bursts delivered at the theta frequency, i.e., 5 Hz delivered at t=47 min.
# [2] = biological target: T1, GluR4 flip (Homo sapiens, UniProt P48058); test: Potentiation of L-glutamate mediated currents on HEK cells expressing GluR4 flip (Ornstein et al.); type: cell-based
# T1 construct: expressed in transfected cells; host or cells: HEK cells
# Protocol: From a study of the structure-activity relationship of the compounds of Ornstein (Ornstein, et al., 2000, ibid), a derivative of LY404187 designated 22h was chosen to provide the ampakine functionality of the new fusion molecule. The structural difference between LY404187 and the 22h derivative is that 22h has an amino substituent on the distal aromatic ring of the biphenyl group instead of a cyano substituent.
# [3] = tested on: scopolamine-induced learning and memory deficits; test: Morris water maze, scopolamine-induced learning deficits (escape latency); type: in vivo, Male Wistar rats
# Protocol: Learning and memory performance: Learning and memory performances were tested in the conventional Morris water maze according to the following procedure. The Morris maze includes a circular water tank (150 cm in diameter) filled with water and maintained at 27° C. with an escape platform (15 cm in diameter) 18 cm from the perimeter always in the same position 2 cm beneath the surface of the water. The water is made opaque by addition of milk powder rendering the platform invisible.
# Male Wistar rats (200-230 g body weight, maintained in standard laboratory conditions) were given a single training session on one day. A training session consists of 4 consecutive trials (T1-T4) in the Morris water maze separated by 60 seconds. For each trial the animal is placed in the maze at one of two starting points equidistant from the escape platform and allowed to find the escape platform. The animal is left on the escape platform for 60 seconds before starting a new trial. […] During the 4 trials the animals start the maze twice from each starting point in a randomly determined order per animal. The time the animal takes to find the escape platform is referred to as the “escape latency.”
# Measure of escape latency in control and test animals: The ampakine, the nemdakine, and the combination of ampakine and nemdakine of the present invention were administered p.o. to test animals 60 minutes before a test session in the maze (t=−60 min). Scopolamine was administered i.p. to induce learning and memory deficits 30 minutes later, i.e., 30 minutes before the test session in the maze (t=−30 min). Scopolamine induces amnesia as shown by the failure of scopolamine-treated animals to reduce their escape latencies from trial to trial. […]
# The principal measure taken at each trial was the escape latency. Measures consisted in the time the animals took to find the platform and were analyzed by ANOVA with repeated measures. […]
# [4] = tested on: LTP; conditions: agent alone; cited from earlier work
# [5] = tested on: AMPA-induced currents in cerebellar Purkinje cells as well as in hippocampal pyramidal neurons; test: Increase of AMPA-induced currents in neurons (Gates et al.); type: cell-based
# Source text: The ampakine functionality of LB-253-4c is a biarylpropylsulfonamide (Ornstein et al., ibid). […] The new fusion molecule, LB-253-4c, therefore, likely has a different mode of action compared to that of cyclothiazide, a mode of action more directed towards deactivation instead of desensitization.
# [6] = biological target: T1, GluR4 flip; conditions: HEK cells expressing GluR4 flip; read-out: potentiation of the L-glutamate mediated currents; cited from earlier work
# T1 sequence (P48058 21-902): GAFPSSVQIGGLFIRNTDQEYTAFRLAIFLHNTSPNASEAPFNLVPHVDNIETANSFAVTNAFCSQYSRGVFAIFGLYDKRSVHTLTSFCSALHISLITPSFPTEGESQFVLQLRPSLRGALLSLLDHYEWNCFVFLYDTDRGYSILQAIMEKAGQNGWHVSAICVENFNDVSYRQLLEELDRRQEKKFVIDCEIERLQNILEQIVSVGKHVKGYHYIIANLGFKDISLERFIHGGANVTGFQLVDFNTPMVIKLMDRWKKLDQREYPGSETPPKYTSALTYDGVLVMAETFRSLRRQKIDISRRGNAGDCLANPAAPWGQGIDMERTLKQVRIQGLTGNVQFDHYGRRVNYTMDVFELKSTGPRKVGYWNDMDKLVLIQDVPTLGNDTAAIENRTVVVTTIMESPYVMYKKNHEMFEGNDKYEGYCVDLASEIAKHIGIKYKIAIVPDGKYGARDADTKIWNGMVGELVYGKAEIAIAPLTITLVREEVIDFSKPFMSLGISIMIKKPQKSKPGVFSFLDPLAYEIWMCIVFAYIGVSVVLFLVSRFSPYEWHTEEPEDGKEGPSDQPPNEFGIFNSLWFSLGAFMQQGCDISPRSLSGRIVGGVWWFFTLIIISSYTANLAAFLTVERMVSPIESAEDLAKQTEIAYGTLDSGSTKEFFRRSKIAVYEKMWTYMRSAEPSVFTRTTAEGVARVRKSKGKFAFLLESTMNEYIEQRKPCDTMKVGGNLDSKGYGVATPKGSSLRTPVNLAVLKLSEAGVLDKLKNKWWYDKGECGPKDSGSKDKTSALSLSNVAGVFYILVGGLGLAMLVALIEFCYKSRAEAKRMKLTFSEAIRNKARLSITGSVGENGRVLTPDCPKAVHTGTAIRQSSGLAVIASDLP
structure (smiles),measurement,setting,value
"NC(CO)C(=O)O (racemic) [D, L-serine]",levels of potentiation / responses (EPSP slope) as compared to control slices,"[1]; 2 μM D, L-serine alone",did not modify the levels of potentiation; also recorded: did not produce any significant effect
CC(CNS(=O)(=O)C(C)C)c1ccc(-c2ccc(N)cc2)cc1 (centres unmarked) [22h],activity relative to LY404187,[2],about 2 fold
N[C@H](CO)C(=O)O [D-serine],reversal of scopolamine-induced impairment,"[3]; 1000 mg/kg p.o. at t=−60 min, then scopolamine 0.5 mg/kg i.p.",statistically significant reversal of scopolamine-induced impairment
same,concentration known to facilitate LTP,[4],10 µM
"NC(CO)(CC1=CCN(Cc2ccccc2)CC1)C(=O)O (centres unmarked) [LB-302, 2-amino-3-(1-benzyl-1,2,3,6-tetrahydro-pyridin-4-yl)-2-hydroxymethyl-propionic acid]",LTP amplitude,[1]; LB-302 100 μM,dramatic increase in LTP amplitude
same,baseline response,[1]; LB-302 100 μM,small increase in baseline response
"CC(CNS(=O)(=O)C(C)C)c1ccc(-c2ccc(C#N)cc2)cc1 (centres unmarked) [LY404187, N-2-(4-(cyanophenyl)phenyl)propyl-2-propanesulfonamide]",potency relative to CX546,[5],about 1000 times
same,EC50,[6],290 nM
NC(=O)CN1CCCC1=O [piracetam],reversal of scopolamine-induced learning impairment,"[3]; 500 mg/kg p.o. at t=−60 min, then scopolamine 0.5 mg/kg i.p.","trend towards a reversal of scopolamine-induced learning impairment, although this effect did not reach statistical significance"
same,effect on the responses (EPSP slope),[1]; piracetam 250 μM alone,did not produce any significant effect
CN1[C@@H]2C[C@@H](OC(=O)[C@H](CO)c3ccccc3)C[C@H]1[C@@H]1O[C@@H]12 [scopolamine],performance (escape latency) across the 4 trials,[3]; scopolamine alone 0.5 mg/kg i.p. at t=−30 min,failed to improve their performance across the 4 trials
